According to the NIST ThermoML archive (doi:10.1021/je060271a):
Where “and” joins values, the source holds several entries; their conditions need not be identical. Equal values may be shown once.

Conditions: Liquid, Vibrating tube method

CCCCCC(=O)OCC(COC(=O)CCCCC)(COC(=O)CCCCC)COC(=O)CCCCC [pentaerythritol tetrahexanoate]
Conditions | mass density
343.16 K, 33002 kPa | 980 kg/m3
343.16 K, 33028 kPa | 980.1 kg/m3
343.16 K, 33054 kPa | 980.2 kg/m3
343.16 K, 33085 kPa | 980.1 kg/m3
343.16 K, 33111 kPa | 980.2 kg/m3
343.16 K, 33138 kPa | 980.1 kg/m3
343.16 K, 33170 kPa | 980.2 kg/m3
343.16 K, 33198 kPa | 980.2 kg/m3
343.16 K, 33224 kPa | 980.2 kg/m3
343.16 K, 33250 kPa | 980.3 kg/m3
343.16 K, 33277 kPa | 980.2 kg/m3
343.16 K, 33310 kPa | 980 kg/m3
343.16 K, 33337 kPa | 980.3 kg/m3
343.16 K, 33364 kPa | 980.3 kg/m3
343.16 K, 33397 kPa | 980.3 kg/m3
343.16 K, 33424 kPa | 980.3 kg/m3
343.16 K, 33458 kPa | 980.4 kg/m3
343.16 K, 33486 kPa | 980.4 kg/m3
343.16 K, 33515 kPa | 980.2 kg/m3
343.16 K, 33551 kPa | 980.4 kg/m3
343.16 K, 33582 kPa | 980.5 kg/m3
343.16 K, 33613 kPa | 980.4 kg/m3
343.16 K, 33643 kPa | 980.7 kg/m3
343.16 K, 33678 kPa | 980.5 kg/m3
343.16 K, 33700 kPa | 980.5 kg/m3
343.16 K, 33718 kPa | 980.5 kg/m3
343.16 K, 33738 kPa | 980.5 kg/m3
343.16 K, 33761 kPa | 980.6 kg/m3
343.16 K, 33781 kPa | 980.6 kg/m3
343.16 K, 33806 kPa | 980.6 kg/m3
343.16 K, 33826 kPa | 980.6 kg/m3
343.16 K, 33846 kPa | 980.6 kg/m3
343.16 K, 33868 kPa | 980.6 kg/m3
343.16 K, 33883 kPa | 980.7 kg/m3
343.16 K, 33898 kPa | 980.7 kg/m3
343.16 K, 33914 kPa | 980.8 kg/m3
343.16 K, 33932 kPa | 980.6 kg/m3
343.16 K, 33948 kPa | 980.7 kg/m3
343.16 K, 33966 kPa | 980.7 kg/m3
343.16 K, 33982 kPa | 980.5 kg/m3
343.16 K, 33995 kPa | 980.7 kg/m3
343.16 K, 34005 kPa | 980.7 kg/m3
343.16 K, 34016 kPa | 980.8 kg/m3
343.16 K, 34026 kPa | 980.7 kg/m3
343.16 K, 34034 kPa | 980.8 kg/m3
343.16 K, 34035 kPa | 980.7 kg/m3
343.16 K, 34036 kPa | 980.8 kg/m3
343.16 K, 34037 kPa | 980.9 kg/m3 and 980.6 kg/m3
343.16 K, 34047 kPa | 980.7 kg/m3
343.16 K, 34048 kPa | 980.7 kg/m3
343.16 K, 34058 kPa | 980.8 kg/m3
343.16 K, 34091 kPa | 980.7 kg/m3
343.16 K, 34101 kPa | 980.8 kg/m3
343.16 K, 34114 kPa | 980.8 kg/m3
343.16 K, 34125 kPa | 980.7 kg/m3
343.16 K, 34137 kPa | 980.8 kg/m3
343.16 K, 34151 kPa | 980.7 kg/m3
343.16 K, 34163 kPa | 980.8 kg/m3
343.16 K, 34177 kPa | 980.7 kg/m3
343.16 K, 34189 kPa | 980.8 kg/m3
343.16 K, 34190 kPa | 980.9 kg/m3
343.16 K, 34198 kPa | 980.8 kg/m3
343.16 K, 34203 kPa | 980.8 kg/m3
343.16 K, 34211 kPa | 980.7 kg/m3
343.16 K, 34217 kPa | 980.8 kg/m3
343.16 K, 34223 kPa | 980.8 kg/m3
343.16 K, 34231 kPa | 980.7 kg/m3
343.16 K, 34237 kPa | 980.9 kg/m3
343.16 K, 34243 kPa | 980.7 kg/m3
343.16 K, 34248 kPa | 980.8 kg/m3
343.16 K, 34251 kPa | 980.9 kg/m3
343.16 K, 34253 kPa | 980.9 kg/m3
343.16 K, 34254 kPa | 980.8 kg/m3 and 980.9 kg/m3
343.16 K, 34255 kPa | 980.8 kg/m3 and 980.9 kg/m3
343.16 K, 34256 kPa | 980.8 kg/m3 and 980.9 kg/m3 and 980.7 kg/m3
343.16 K, 34257 kPa | 980.9 kg/m3
343.16 K, 34258 kPa | 980.8 kg/m3 and 980.7 kg/m3
343.16 K, 34259 kPa | 981 kg/m3
343.16 K, 34262 kPa | 980.9 kg/m3
343.16 K, 34263 kPa | 980.8 kg/m3 and 980.9 kg/m3
343.16 K, 34264 kPa | 980.9 kg/m3
343.16 K, 34265 kPa | 980.9 kg/m3 and 980.8 kg/m3
343.16 K, 34266 kPa | 980.8 kg/m3 and 980.9 kg/m3
343.16 K, 34267 kPa | 980.8 kg/m3 and 981 kg/m3 and 980.9 kg/m3
343.16 K, 34268 kPa | 980.8 kg/m3 and 980.9 kg/m3
343.16 K, 34269 kPa | 980.8 kg/m3 and 980.9 kg/m3
343.16 K, 34270 kPa | 980.9 kg/m3 and 980.8 kg/m3
343.16 K, 34271 kPa | 980.8 kg/m3
343.16 K, 34272 kPa | 981 kg/m3
343.16 K, 34273 kPa | 980.9 kg/m3
343.16 K, 34274 kPa | 980.9 kg/m3
343.16 K, 34275 kPa | 980.8 kg/m3
343.16 K, 34276 kPa | 980.9 kg/m3
343.16 K, 34277 kPa | 980.9 kg/m3
343.16 K, 34278 kPa | 980.9 kg/m3
343.16 K, 34279 kPa | 980.8 kg/m3
343.16 K, 34283 kPa | 980.9 kg/m3
343.16 K, 34284 kPa | 980.9 kg/m3 and 980.8 kg/m3 and 981 kg/m3
343.16 K, 34285 kPa | 980.9 kg/m3
343.16 K, 34286 kPa | 980.8 kg/m3
343.16 K, 34287 kPa | 980.9 kg/m3 and 981 kg/m3
343.16 K, 34288 kPa | 980.9 kg/m3
343.16 K, 34289 kPa | 980.9 kg/m3
343.16 K, 34290 kPa | 980.8 kg/m3 and 980.9 kg/m3
343.16 K, 34291 kPa | 980.9 kg/m3
343.16 K, 34292 kPa | 980.9 kg/m3
343.16 K, 34293 kPa | 980.9 kg/m3
343.16 K, 34294 kPa | 980.9 kg/m3
343.16 K, 34295 kPa | 980.8 kg/m3
343.16 K, 34296 kPa | 980.9 kg/m3
343.16 K, 34297 kPa | 980.9 kg/m3
343.16 K, 34298 kPa | 980.9 kg/m3 and 981 kg/m3
343.16 K, 34300 kPa | 980.9 kg/m3
343.16 K, 34301 kPa | 980.8 kg/m3
343.16 K, 34303 kPa | 980.9 kg/m3
343.16 K, 34305 kPa | 980.9 kg/m3
343.16 K, 34307 kPa | 980.9 kg/m3
343.16 K, 34310 kPa | 981 kg/m3
343.16 K, 34312 kPa | 980.8 kg/m3
343.16 K, 34315 kPa | 980.9 kg/m3
343.16 K, 34319 kPa | 980.9 kg/m3
343.16 K, 34322 kPa | 980.9 kg/m3
343.16 K, 34326 kPa | 980.9 kg/m3
343.16 K, 34332 kPa | 980.8 kg/m3
343.16 K, 34336 kPa | 980.8 kg/m3
343.16 K, 34342 kPa | 980.9 kg/m3
343.16 K, 34350 kPa | 980.9 kg/m3
343.16 K, 34356 kPa | 980.9 kg/m3
343.16 K, 34361 kPa | 980.9 kg/m3
343.16 K, 34363 kPa | 980.9 kg/m3
343.16 K, 34369 kPa | 981 kg/m3
343.17 K, 21206 kPa | 972.4 kg/m3
343.17 K, 30224 kPa | 978.4 kg/m3
343.17 K, 30254 kPa | 978.3 kg/m3
343.17 K, 30283 kPa | 978.4 kg/m3
343.17 K, 30312 kPa | 978.5 kg/m3
343.17 K, 30333 kPa | 978.4 kg/m3
343.17 K, 30358 kPa | 978.5 kg/m3
343.17 K, 30380 kPa | 978.5 kg/m3
343.17 K, 30402 kPa | 978.4 kg/m3
343.17 K, 30428 kPa | 978.5 kg/m3
343.17 K, 30449 kPa | 978.5 kg/m3
343.17 K, 30471 kPa | 978.6 kg/m3
343.17 K, 30497 kPa | 978.5 kg/m3
343.17 K, 31456 kPa | 979.2 kg/m3
